Measured values as given in the supplement of paper PMC10290057.
Where a name gives a salt, the structure may show the parent alone.

Tested on: HCT116
Assay: efficacy (fitted maximal change in viability relative to DMSO control); higher = less cytotoxic (negative = loss of viability)
Details: 48 h
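Also: Luminescence-based viability readout, five doses per compound, normalized against on-plate DMSO and empty-well controls, followed by dose-response curve fitting for every drug.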

Row | SMILES | efficacy
1 | Cn1ccc2cc3c(cc21)CCN3C(=O)Nc1cccnc1 | -22.8%
2 | OC1=CC2=C(C(=C1)O)C(=O)\C(=C(/O2)C3=CC(=C(O)C(=C3)O)O)O [Myricetin] | -26.3%
3 | CC(C)n1cc(-c2ccc3c(c2)N(C)CC3)c2c(N[S+](=O)([O-])c3ccn(C)n3)ccnc21 | -24.7%
4 | OC1=CC2=C(C(=C1)O)C(=O)\C=C(/O2)C3=CC(=C(O)C=C3)O [Digitoflavone] | -77.5%
5 | CN1C(=O)[C@@H](NC(=O)c2cc(Cc3ccccc3)on2)COc2ccccc21 [GSK-481] | -10.3%
6 | COc1nccc(-c2c(-c3ccc(F)cc3)ncn2C2CCC(O)CC2)n1 (stereo unspecified) | -34.5%
7 | O=C(NCC(=O)N1CCCC1)Nc1ccc2cnccc2c1 [SGC-707] | -18%
8 | O=P(O)(O)C(O)(Cc1cccnc1)P(=O)(O)[O][Na] (stereo unspecified) [Risedronate sodium] | -16.1%
9 | CC(=O)Nc1ccc(OC[C@](C)(O)C(=O)Nc2ccc([N+](=O)[O-])c(C(F)(F)F)c2)cc1 [Andarine] | -7.63%
10 | C[C@H]1CC2[C@@H]3CCC/4=C/C(=O)/C=C\[C@]4(C)[C@@]3(F)[C@@H](O)C[C@]2(C)[C@@]1(O)C(=O)CO (stereo partly specified) [BETAMETHASONE] | -11.5%
11 | N[C@@H](Cc1c[nH]c2ccc(O)cc12)C(=O)O [5-Hydroxytryptophan] | -7.82%
12 | Nc1nc(OCc2ccccc2)c2nc[nH]c2n1 [O6-Benzylguanine] | -34.3%
13 | CN1\C=C(/N=C(NC2=CC=C(C=C2)C(=O)N3CCOCC3)\C1=O)C4=C(C)C(=CC=C4)NC(=O)C5=CC=C(C=C5)C(C)(C)C [CGI-1746] | -29.2%
14 | N[S+]([O-])(=O)C1=C(Cl)C=C2\N=C/N[S+]([O-])(=O)C2=C1 [Chlorothiazide] | -4.38%
15 | Cc1c(Cl)cccc1[S+](=O)([O-])Nc1nc(CCN2CCOCC2=O)cs1 [BVT-3498] | -14.1%
16 | CCCCCCCCCCCCc1ccc([S+](=O)([O-])Nc2nncs2)cc1 [PHT-427] | -13.9%
17 | CSCC[C@H](NC(=O)[C@H](Cc1c[nH]c2ccccc12)NC(=O)CCNC(=O)OC(C)(C)C)C(=O)N[C@@H](CC(=O)O)C(=O)N[C@@H](Cc1ccccc1)C(N)=O [Pentagastrin] | -5.16%
18 | CN(CC#C)C/C1=C/C2=CC=CC=C2OC3=CC=CC=C13 [Omigapil] | -34.5%
19 | O=C(c1ccc(C(=O)N2CCC(N3CCCC3)CC2)c(Nc2ccccc2)c1)N1CCC(N2CCCC2)CC1 [UNC-1215] | -10.4%
20 | C=C1C[C@@]2(O)O[C@@]3(C[C@H]2C(C)C)[C@@H](C)CC[C@@H]13 [Curcumol] | -14.1%
21 | O=C(O)C[C@H]1CC[C@H](c2ccc(-c3ccc(Nc4ccc(C(F)(F)F)nc4)cn3)cc2)CC1 [Pradigastat] | -15.9%
22 | CC(=O)O[C@H]1C[C@@H]2CC[C@@H]3[C@H](CC[C@@]4(C)[C@H]3C[C@H]([N+]3(C)CCCCC3)[C@@H]4OC(C)=O)[C@@]2(C)C[C@@H]1[N+]1(C)CCCCC1 [Pancuronium bromide] | -8.83%
23 | CN(C)[C@H]\1[C@@H]2[C@@H](O)[C@@H]\3C(=C)C4=C(C(=CC=C4)O)C(=O)C3=C(\O)[C@@]2(O)C(=O)\C(=C1O)C(N)=O [Methacycline hydrochloride] | -9.07%
24 | O=C(C[C@@H]1C/C=C\CCC(=O)O[C@H](c2ccccc2)CNC1=O)NCc1ccc(Cl)cc1 [Robotnikinin] | -22.6%
25 | COc1cc(C(C)C)c(Oc2cnc(NC(CO)CO)nc2N)cc1I [Ro-51] | 7.2%
26 | CNC(=O)c1ccc(N2C(=S)N(c3ccc(C#N)c(C(F)(F)F)c3)C(=O)C2(C)C)cc1F [Enzalutamide] | -37%

Row | SMILES | efficacy
27 | Oc1ccc(Nc2nc(-c3ccc(Cl)cc3)cs2)cc1 [SKI-II] | -62.8%
28 | Cc1nnc(C(C)C)n1C1CC2CCC(C1)N2CCC(NC(=O)C1CCC(F)(F)CC1)c1ccccc1 (stereo unspecified) [Celsentri (Maraviroc)] | 17%
29 | O=C1[C@H](CC[C@H](O)c2ccc(F)cc2)[C@@H](c2ccc(O)cc2)N1c1ccc(F)cc1 [Ezetimibe] | -48.2%
30 | CN1C(=O)C(=C\C2=C1N=C(NC3=CC=CC(=C3)C(O)=O)N=C2)/C4=C(Cl)C=CC=C4Cl | -10.3%
31 | Cc1ccccc1C(C(=O)NC1CCCCC1)N(C(=O)Cn1ccnc1C)c1cccc(F)c1 (stereo unspecified) [AGI-5198] | -18.4%
32 | Nc1ncnc2c1C(=O)N(c1ccc([C@H]3CC[C@H](CC(=O)O)CC3)cc1)CCO2 | -5.95%
33 | CC#CCn1c(N2CCC[C@@H](N)C2)nc2c1c(=O)n(Cc1nc(C)c3ccccc3n1)c(=O)n2C [Linagliptin] | -31.7%
34 | CN(C)CCOC(c1ccccc1)c1ccccc1 [Diphenhydramine hydrochloride] | -12.9%
35 | COC1=CC(=CC(=C1CN(C)C)OC)\C2=C\N(C)C(=O)C3=C2C=CN=C3 [BI-7273] | -29.9%
36 | CCCn1c(=O)c2[nH]c(C34CC5CC3C[C@@H](C5)C4)nc2n(CCC)c1=O [Rolofylline] | -6.71%
37 | COc1ccc(C(=O)N2CCCC2=O)cc1 [Aniracetam] | -17.4%
38 | CC1=CC(=CC(=C1C\C2=N\CCN2)C)C(C)(C)C [Xylometazoline hydrochloride] | -32.9%
39 | CN[C@@H](C)C(=O)N[C@H](C(=O)N1CCC[C@H]1C(=O)Nc1snnc1-c1ccccc1)C1CCCCC1 [GDC-0152] | -13.4%
40 | N/C1=N/C(=O)C/2=C(NC[C@@H](CNC3=CC=C(C=C3)C(=O)N[C@@H](CCC([O-])=O)C([O-])=O)N2C=O)\N1 [Calcium folinate] | -9.49%
41 | C1Cc2[nH]nc(-c3nn[nH]n3)c2C1 [MK-0354] | -7.85%
42 | CCCC1=NC(=C2[N]1NC(=N\C2=O)/C3=CC(=CC=C3OCC)[S+]([O-])(=O)N4CCN(CC)CC4)C [Vardenafil] | -19.1%
43 | O=C(O)CNC(=O)c1nc(Cl)c2ccccc2c1O [FG-2216] | -7.52%
44 | O=C(O)c1cc(O)c2c(c1)C(=O)c1cccc(O)c1C2=O [Rhein] | -14.9%
45 | COc1ccc(COc2cc3oc(=O)c4cc(C(C)O)ccc4c3cc2OC)cc1 (stereo unspecified) | -22%
46 | CC(C)c1ccc2oc3nc(N)c(C(=O)O)cc3c(=O)c2c1 [Amlexanox] | -24.9%
47 | CN(C)CCNC(=O)COc1c2cccc1Cc1cccc(c1OCC(=O)NCCN(C)C)Cc1cccc(c1OCC(=O)NCCN(C)C)Cc1cccc(c1OCC(=O)NCCN(C)C)C2 [OTX-008] | -46.7%
48 | Cc1n[nH]c2ncc(C(=O)N3CCC[C@H]3c3ccc(Cl)cc3)cc12 | -17.4%
49 | C=CC(=O)N1C[C@H](Nc2ncnc3[nH]ccc23)CC[C@@H]1C | -26.7%
50 | CN1C(=O)N[C@H](Cc2c[nH]c3c(Cl)cccc23)C1=O [Necrostatin 2] | 15%
51 | CN1N(C2=CC=CC=C2)C(=O)C(=C1/C3=CC=CC=C3)/C(=O)C4=CC=C(C)C(=C4N)C5=CC=C6N=C(C)C=CC6=C5 [AMG PERK 44] | -31.8%
52 | Oc1nc(-c2ccc(C(F)(F)F)cc2)nc2c1CSCC2 [NVP-XAV-939] | -13.5%

Row | SMILES | efficacy
53 | Cc1noc(-c2ccc(CSCCC(=O)O)cc2)c1NC(=O)OC(C)c1ccccc1Cl (stereo unspecified) | -36.3%
54 | CC(C)[C@H](CO)Nc1nc(Nc2ccc(C(=O)O)c(Cl)c2)c2ncn(C(C)C)c2n1 [Purvalanol B] | -11.6%
55 | CN(C)NC(=O)CCC(=O)O [Daminozide] | -8.97%
56 | c1ccc2c(Cc3c[nH]c4ccccc34)c[nH]c2c1 [Diindolylmethane] | -49.5%
57 | N#Cc1ccnc(N2C(=O)CC[C@H]2C(=O)N(c2cncc(F)c2)[C@H](C(=O)NC2CC(F)(F)C2)c2ccccc2Cl)c1 [Ivosidenib] | -25.4%
58 | NC(=O)c1nc(F)cnc1O [Favipiravir] | -17.6%
59 | C[N]1N=C(C)C2=C1OC(=C(/C#N)C2C3=CC=C(C=C3)C(F)(F)F)/N (stereo unspecified) [BQU-57] | -30.8%
60 | CCOCOC[C@H](C[C@H](C)C(=O)NO)NC(=O)c1ccc(Oc2ccccc2)cc1 [ONO-4817] | -33.1%
61 | Clc1ccc2ncc(-c3cccc(NC4CNC4)n3)n2c1 | -10.1%
62 | CC(=O)O[C@@]1(CC[C@H]2[C@@H]3\C=C(Cl)/C4=C/C(=O)[C@@H]5C[C@@H]5[C@]4(C)[C@H]3CC[C@]12C)C(C)=O [Cyproterone acetate] | -60.6%
63 | CCCCC[C@H](O)/C=C/[C@H]1[C@H](O)CC(=O)[C@@H]1C/C=C\CCCC(=O)O [Prostaglandin E2] | -28.6%
64 | Cc1[nH]nc(C(F)(F)F)c1Cc1sc2c(c1C(=O)N1C[C@](C)(O)CO1)c(=O)n(C)c(=O)n2C(C)C [AZD-3965] | -11.2%
65 | Cn1cc(-c2ccc(-c3cncc(Cl)c3N3CCC4(CCNC4=O)CC3)cc2)cn1 | -49.2%
66 | CN(C)CCN(C)CCc1ccc(Cl)c(Cl)c1 [BD-1047] | -29.2%
67 | NC/1=N/C(=O)N/C=C1F [Flucytosine] | -10.7%
68 | CC(C)(O)CCc1ccc(OCc2cc(-c3cccc(OC(F)F)c3)c3ncccc3c2)cc1 | -82%
69 | COC(=O)N[C@H](C(=O)N1CCC[C@H]1c1ncc(-c2ccc(-c3ccc(-c4cnc([C@@H]5CCCN5C(=O)[C@@H](NC(=O)OC)C(C)C)[nH]4)cc3)cc2)[nH]1)C(C)C [Daclatasvir dihydrochloride] | -112%
70 | Nc1ncnc2c1ncn2[C@@H]1O[C@H](CO)[C@@H](O)[C@@H]1O [Vidarabine] | -11.4%
71 | C[C@H]1CNCCCN1[S+](=O)([O-])c1cccc2cncc(F)c12 [Ripasudil] | -11%
72 | Nc1ncnc2c1ncn2[C@@H]1O[C@H](CO)C[C@H]1O [Cordycepin] | -20.6%
73 | Cc1cc2c(cc1C1(c3ccc(C(=O)O)cn3)CC1)C(C)(C)CCC2(C)C | -25.8%
74 | C=CC(=O)Nc1cccc(C)c1Nc1ncc2cc(-c3c(Cl)c(OC)cc(OC)c3Cl)ccc2n1 [BLU-9931] | -50.4%
75 | NC(=O)c1cnc(-c2ccc(C3(N)CCC3)cc2)c(-c2ccccc2)c1 [AZD-26] | -66.9%
76 | COC/1=C/[C@@H]2[C@@H]3CC4=C(C(=C(OC)C=C4)O)[C@]2(CCN3C)CC1=O [Sinomenine] | -20.7%
